# Assay results: patent US20200181104A1, “SSAO INHIBITORS AND USES THEREOF” (METACRINE, INC., priority 2018, published 2020)
# pIC50: −log10 of the molar value. Structures can show the parent of a compound that is named as a salt.
# Target: T1, Recombinant Human SSAO/VAP-1/AOC3 (Homo sapiens, UniProt Q16853)
# T1 construct: purchased R&D systems 3957-AO
# T1 sequence (Q16853 1-763): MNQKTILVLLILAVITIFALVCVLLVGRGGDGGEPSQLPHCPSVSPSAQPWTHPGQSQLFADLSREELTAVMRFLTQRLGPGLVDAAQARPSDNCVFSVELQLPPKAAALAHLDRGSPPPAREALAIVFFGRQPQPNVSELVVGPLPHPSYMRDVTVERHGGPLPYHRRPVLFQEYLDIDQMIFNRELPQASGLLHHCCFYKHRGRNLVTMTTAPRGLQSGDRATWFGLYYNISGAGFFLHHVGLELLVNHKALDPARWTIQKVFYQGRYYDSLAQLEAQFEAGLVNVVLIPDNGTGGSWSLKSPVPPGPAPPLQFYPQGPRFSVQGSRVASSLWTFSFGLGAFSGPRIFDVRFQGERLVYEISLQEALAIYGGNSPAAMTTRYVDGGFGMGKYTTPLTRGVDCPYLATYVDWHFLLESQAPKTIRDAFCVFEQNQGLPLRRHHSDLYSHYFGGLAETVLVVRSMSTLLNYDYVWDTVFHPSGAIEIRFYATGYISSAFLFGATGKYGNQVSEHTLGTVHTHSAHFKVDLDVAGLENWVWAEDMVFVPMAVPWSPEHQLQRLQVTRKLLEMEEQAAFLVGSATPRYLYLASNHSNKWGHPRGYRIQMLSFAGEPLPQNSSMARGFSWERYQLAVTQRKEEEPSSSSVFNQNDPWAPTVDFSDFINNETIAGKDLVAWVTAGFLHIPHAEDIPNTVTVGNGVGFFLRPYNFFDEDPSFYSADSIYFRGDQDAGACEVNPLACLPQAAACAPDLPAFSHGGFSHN
# Experiment: Human Semicarbazide-Sensitive Amine Oxidase (SSAO) Assay
# Type: biochemical
# Conditions: recombinant enzyme, 30 minutes preincubation at 37° C., benzylamine substrate, Amplex Ultra Red/HRP fluorescence
# Procedure, shortened: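 IC50 from kinetic Amplex Ultra Red/HRP fluorescence (ex 544, em 590 nm, 30-120 min) after benzylamine addition. Beforehand, 6-10 compound dilutions were preincubated 30 min at 37 °C with recombinant human SSAO in 50 mM HEPES (enzyme working concentration 2.5 μg/ml).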
row,Structure (SMILES),pIC50
1,"NC/C(=C\F)COc1ccc(C23CCC(C(=O)NC4CCOC5(CCC5)C4)(CC2)CC3)cc1 (stereo not shown) [Compound 2.154, (E)-4-(4-((2-(aminomethyl)-3-fluoroallyl)oxy)phenyl)-N-(5-oxaspiro[3.5]nonan-8-yl)bicyclo[2.2.2]octane-1-carboxamide]",≥ 8.00
2,"NC/C(=C\F)COc1ccc(C23CCC(C(=O)NCc4ccncn4)(CC2)CC3)cc1 [Compound 2.155, (E)-4-(4-((2-(aminomethyl)-3-fluoroallyl)oxy)phenyl)-N-(pyrimidin-4-ylmethyl)bicyclo[2.2.2]octane-1-carboxamide]",≥ 8.00
3,"N#CC1CCCC1NC(=O)C12CCC(c3ccc(OC/C(=C/F)CN)cc3)(CC1)CC2 (stereo not shown) [Compound 2.156, (E)-4-(4-((2-(aminomethyl)-3-fluoroallyl)oxy)phenyl)-N-(2-cyanocyclopentyl)bicyclo[2.2.2] octane-1-carboxamide]",≥ 8.00
4,"Cc1cncc(CNC(=O)C23CCC(c4ccc(OC/C(=C/F)CN)cc4)(CC2)CC3)n1 [Compound 2.157, (E)-4-(4-((2-(aminomethyl)-3-fluoroallyl)oxy)phenyl)-N-((6-methylpyrazin-2-yl)methyl)bicyclo[2.2.2]octane-1-carboxamide]",≥ 8.00
5,"Cc1cnc(CNC(=O)C23CCC(c4ccc(OC/C(=C/F)CN)cc4)(CC2)CC3)cn1 [Compound 2.158, (E)-4-(4-((2-(aminomethyl)-3-fluoroallyl)oxy)phenyl)-N-((5-methylpyrazin-2-yl)methyl)bicyclo[2.2.2]octane-1-carboxamide]",≥ 8.00
6,"NC/C(=C\F)COc1ccc(C23CCC(C(=O)NCc4cncc(C(F)(F)F)c4)(CC2)CC3)cc1 [Compound 2.159, (E)-4-(4-((2-(aminomethyl)-3-fluoroallyl)oxy)phenyl)-N-((5-(trifluoromethyl)pyridin-3-yl)methyl)bicyclo[2.2.2]octane-1-carboxamide]",≥ 8.00
7,"COc1cnc(CNC(=O)C23CCC(c4ccc(OC/C(=C/F)CN)cc4)(CC2)CC3)cn1 [Compound 2.160, (E)-4-(4-((2-(aminomethyl)-3-fluoroallyl)oxy)phenyl)-N-((5-methoxypyrazin-2-yl)methyl)bicyclo[2.2.2]octane-1-carboxamide]",≥ 8.00
8,"COc1cncc(CNC(=O)C23CCC(c4ccc(OC/C(=C/F)CN)cc4)(CC2)CC3)n1 [Compound 2.161, (E)-4-(4-((2-(aminomethyl)-3-fluoroallyl)oxy)phenyl)-N-((6-methoxypyrazin-2-yl)methyl)bicyclo[2.2.2]octane-1-carboxamide]",≥ 8.00
9,"NC/C(=C\F)COc1ccc(C23CC(C(=O)NC4CCOCC4)(C2)C3)cc1 [Compound 3, (E)-3-(4-((2-(aminomethyl)-3-fluoroallyl)oxy)phenyl)-N-(tetrahydro-2H-pyran-4-yl)bicyclo[1.1.1]pentane-1-carboxamide]",≥ 8.00
10,"CC1(C)CC(NC(=O)C23CC(c4ccc(OC/C(=C/F)CN)cc4)(C2)C3)CCO1 (stereo not shown) [Compound 3.01, (E)-3-(4-((2-(aminomethyl)-3-fluoroallyl)oxy)phenyl)-N-(2,2-dimethyltetrahydro-2H-pyran-4-yl)bicyclo[1.1.1]pentane-1-carboxamide]",≥ 8.00
11,"CC1(C)CC(NC(=O)C23CC(c4ccc(OC/C(=C/F)CN)cc4)(C2)C3)CC(C)(C)O1 [Compound 3.02, (E)-3-(4-((2-(aminomethyl)-3-fluoroallyl)oxy)phenyl)-N-(2,2,6,6-tetramethyltetrahydro-2H-pyran-4-yl)bicyclo[1.1.1]pentane-1-carboxamide]",≥ 8.00
12,"COCCNC(=O)C12CC(c3ccc(OC/C(=C/F)CN)cc3)(C1)C2 [Compound 3.03, (E)-3-(4-((2-(aminomethyl)-3-fluoroallyl)oxy)phenyl)-N-(2-methoxyethyl)bicyclo[1.1.1] pentane-1-carboxamide]",≥ 8.00
13,"CO[C@H]1C[C@@H](NC(=O)C23CC(c4ccc(OC/C(=C/F)CN)cc4)(C2)C3)C1 [Compound 3.05, 3-(4-(((E)-2-(aminomethyl)-3-fluoroallyl)oxy)phenyl)-N-((1r,3r)-3-methoxycyclobutyl)bicyclo [1.1.1]pentane-1-carboxamide]",≥ 8.00
14,"CNC(=O)C12CCC(c3ccc(OC/C(=C/F)CN)cc3)(CC1)C2 [Compound 4, (E)-4-(4-((2-(Aminomethyl)-3-fluoroallyl)oxy)phenyl)-N-methylbicyclo[2.2.1]heptane-1-carboxamide Hydrochloride]",≥ 8.00
15,"NC/C(=C\F)COc1ccc(C23CCC(C(=O)NC4CCOCC4)(CC2)C3)cc1 [Compound 4.01, (E)-4-(4-((2-(Aminomethyl)-3-fluoroallyl)oxy)phenyl)-N-(tetrahydro-2H-pyran-4-yl)bicyclo[2.2.1]heptane-1-carboxamide Hydrochloride]",≥ 8.00
16,"CNC(=O)C12CCCC(c3ccc(OC/C(=C/F)CN)cc3)(CC1)C2 (stereo not shown) [Compound 5, 5-(4-(((E)-2-(Aminomethyl)-3-fluoroallyl)oxy)phenyl)-N-methylbicyclo[3.2.1]octane-1-carboxamide Hydrochloride]",≥ 8.00
17,"NC/C(=C\F)COc1ccc(C23CCCC(C(=O)NC4CCOCC4)(CC2)C3)cc1 (stereo not shown) [Compound 5.01, 5-(4-(((E)-2-(Aminomethyl)-3-fluoroallyl)oxy)phenyl)-N-(tetrahydro-2H-pyran-4-yl)bicyclo[3.2.1]octane-1-carboxamide Hydrochloride]",≥ 8.00
18,"NC/C(=C\F)COc1ccc(C23CCC(NC(=O)C4CCOCC4)(CC2)CC3)cc1 [Compound 7, (E)-N-(4-(4-((2-(Aminomethyl)-3-fluoroallyl)oxy)phenyl)bicyclo[2.2.2]octan-1-yl)tetrahydro-2H-pyran-4-carboxamide Hydrochloride]",≥ 8.00
19,"CNC(=O)COC12CCC(c3ccc(OC/C(=C/F)CN)cc3)(CC1)CC2 [Compound 8, (E)-2-((4-(4-((2-(aminomethyl)-3-fluoroallyl)oxy)phenyl)bicyclo[2.2.2]octan-1-yl)oxy)-N-methylacetamide]",≥ 8.00
20,"NC/C(=C\F)CNc1ccc(C23CCC(C(=O)NC4CCOCC4)(CC2)CC3)cc1 [Compound 9, (E)-4-(4-((2-(Aminomethyl)-3-fluoroallyl)amino)phenyl)-N-(tetrahydro-2H-pyran-4-yl)bicyclo[2.2.2]octane-1-carboxamide Hydrochloride]",7.00 to 8.00
21,"CNC(=O)C12CCCC(c3ccc(OC/C(=C/F)CN)cc3)(CC1)CC2 [Compound 10, (E)-5-(4-((2-(Aminomethyl)-3-fluoroallyl)oxy)phenyl)-N-methylbicyclo[3.2.2]nonane-1-carboxamide Hydrochloride]",≥ 8.00

# Other lines, results leading:
row,pIC50,Structure (SMILES)
1,≥ 8.00,"CC(C)NC(=O)C12CC3CC(C1)CC(c1ccc(OC/C(=C/F)CN)cc1)(C3)C2 [Compound 6.04, (E)-3-(4-((2-(aminomethyl)-3-fluoroallyl)oxy)phenyl)-N-isopropyladamantane-1-carboxamide]"
2,≥ 8.00,"NC/C(=C\F)COc1ccc(C23CCC(NC(=O)CCO)(CC2)CC3)cc1 [Compound 7.01, (E)-N-(4-(4-((2-(aminomethyl)-3-fluoroallyl)oxy)phenyl)bicyclo [2.2.2]octan-1-yl)-3-hydroxypropanamide]"
3,≥ 8.00,"COCCC(=O)NC12CCC(c3ccc(OC/C(=C/F)CN)cc3)(CC1)CC2 [Compound 7.02, (E)-N-(4-(4-((2-(aminomethyl)-3-fluoroallyl)oxy)phenyl)bicyclo [2.2.2]octan-1-yl)-3-methoxypropanamide]"
4,≥ 8.00,"NC/C(=C\F)COc1ccc(C23CCC(NS(=O)(=O)C4CC4)(CC2)CC3)cc1 [Compound 7.03, (E)-N-(4-(4-((2-(aminomethyl)-3-fluoroallyl)oxy)phenyl)bicyclo[2.2.2]octan-1-yl)cyclopropanesulfonamide]"
5,≥ 8.00,"NC/C(=C\F)COc1ccc(C23CCC(OCC(=O)NC4CCOCC4)(CC2)CC3)cc1 [Compound 8.01, (E)-2-((4-(4-((2-(aminomethyl)-3-fluoroallyl)oxy)phenyl)bicyclo [2.2.2]octan-1-yl)oxy)-N-(tetrahydro-2H-pyran-4-yl)acetamide]"
6,≥ 8.00,"NC/C(=C\F)COc1ccc(C23CCC(OCC(=O)N4CCOCC4)(CC2)CC3)cc1 [Compound 8.02, (E)-2-((4-(4-((2-(aminomethyl)-3-fluoroallyl)oxy)phenyl)bicyclo [2.2.2]octan-1-yl)oxy)-1-morpholinoethanone]"
7,≥ 8.00,"COCCOC12CCC(c3ccc(OC/C(=C/F)CN)cc3)(CC1)CC2 [Compound 8.03, (E)-3-Fluoro-2-((4-(4-(2-methoxyethoxy)bicyclo[2.2.2]octan-1-yl)phenoxy)methyl)prop-2-en-1-amine Hydrochloride]"
